Test results taken from PubChem BioAssay AID2060498 (Molecular Pharmacology Branch, DTP, NCI, 2025).

Test system: 171881-019-R-J1-PDC tumor spheroids, viability
Assay: Anticancer human tumor 171881-019-R-J1-PDC patient-derived invasive breast carcinoma cell line growth inhibition [GQUAD]
Conditions: spheroids with HUVEC and MSC; for IC50: curve of first compound; for viability, T/C: stronger effect = lower value
In short: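 Tumor cells were grown as complex spheroids with HUVEC endothelial cells and mesenchymal stem cells as stroma. G-quadruplex stabilizers were combined with targeted agents over half-log dilutions from near the clinical Cmax, or from 10 microM.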

[1] = second compound 0.0316 µM, first compound 0.0316 µM
[2] = second compound 0.0316 µM, first compound 0.1 µM
[3] = second compound 0.0316 µM, first compound 0.316 µM
[4] = second compound 0.0316 µM, first compound 1 µM
[5] = second compound 0.0316 µM, first compound 3.16 µM
[6] = second compound 0.0316 µM, first compound 10 µM
[7] = second compound 0.1 µM, first compound 0.0316 µM
[8] = second compound 0.1 µM, first compound 0.1 µM
[9] = second compound 0.1 µM, first compound 0.316 µM
[10] = second compound 0.1 µM, first compound 1 µM
[11] = second compound 0.1 µM, first compound 3.16 µM
[12] = second compound 0.1 µM, first compound 10 µM
[13] = second compound 0.316 µM, first compound 0.0316 µM
[14] = second compound 0.316 µM, first compound 0.1 µM
[15] = second compound 0.316 µM, first compound 0.316 µM
[16] = second compound 0.316 µM, first compound 1 µM
[17] = second compound 0.316 µM, first compound 3.16 µM
[18] = second compound 0.316 µM, first compound 10 µM
[19] = second compound 1 µM, first compound 0.0316 µM
[20] = second compound 1 µM, first compound 0.1 µM
[21] = second compound 1 µM, first compound 0.316 µM
[22] = second compound 1 µM, first compound 1 µM
[23] = second compound 1 µM, first compound 3.16 µM
[24] = second compound 1 µM, first compound 10 µM
[25] = second compound 3.16 µM, first compound 0.0316 µM
[26] = second compound 3.16 µM, first compound 0.1 µM
[27] = second compound 3.16 µM, first compound 0.316 µM
[28] = second compound 3.16 µM, first compound 1 µM
[29] = second compound 3.16 µM, first compound 3.16 µM
[30] = second compound 3.16 µM, first compound 10 µM
[31] = second compound 10 µM, first compound 0.0316 µM
[32] = second compound 10 µM, first compound 0.1 µM
[33] = second compound 10 µM, first compound 0.316 µM
[34] = second compound 10 µM, first compound 1 µM
[35] = second compound 10 µM, first compound 3.16 µM
[36] = second compound 10 µM, first compound 10 µM
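Note: spheroids exposed to compounds for 7 days.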
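Throughout, for viability, T/C: 100% = DMSO vehicle control viability.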

## C#Cc1c(F)ccc2cc(O)cc(-c3ncc4c(N5CC6CCC(C5)N6)nc(OCC56CCCN5CC(F)C6)nc4c3F)c12 (stereo not drawn) + CN(C)c1ccc(Nc2c3ccc(NC(=O)CCN4CCCC4)cc3nc3cc(NC(=O)CCN4CCCC4)ccc23)cc1
Second compound 0.0316 µM
  IC50: 509 nM
Second compound 0.1 µM
  IC50: 362 nM
Second compound 0.316 µM
  IC50: < 31.6 nM
Second compound 1 µM
  IC50: < 31.6 nM
Second compound 3.16 µM
  IC50: < 31.6 nM
Second compound 10 µM
  IC50: < 31.6 nM
[1]
  viability, T/C: 91.8%
[2]
  viability, T/C: 77.2%
[3]
  viability, T/C: 53.9%
[4]
  viability, T/C: 41.5%
[5]
  viability, T/C: 25.2%
[6]
  viability, T/C: 11.2%
[7]
  viability, T/C: 87.8%
[8]
  viability, T/C: 68.1%
[9]
  viability, T/C: 52%
[10]
  viability, T/C: 35%
[11]
  viability, T/C: 23.7%
[12]
  viability, T/C: 8.76%
[13]
  viability, T/C: 43.1%
[14]
  viability, T/C: 33.4%
[15]
  viability, T/C: 24.5%
[16]
  viability, T/C: 15.3%
[17]
  viability, T/C: 11.9%
[18]
  viability, T/C: 0.81%
[19]
  viability, T/C: 3.77%
[20]
  viability, T/C: 3.04%
[21]
  viability, T/C: 3.15%
[22]
  viability, T/C: 1.14%
[23]
  viability, T/C: 1%
[24]
  viability, T/C: 0.07%
[25]
  viability, T/C: 0.2%
[26]
  viability, T/C: 0.29%
[27]
  viability, T/C: 0.47%
[28]
  viability, T/C: 0.22%
[29]
  viability, T/C: 0.17%
[30]
  viability, T/C: 0.1%
[31]
  viability, T/C: 0.11%
[32]
  viability, T/C: 0.1%
[33]
  viability, T/C: 0.13%
[34]
  viability, T/C: 0.26%
[35]
  viability, T/C: 0.26%
[36]
  viability, T/C: 0.13%

## CC(=O)O[C@H]1C(=O)[C@@]2(C)[C@H]([C@H](OC(=O)c3ccccc3)[C@]3(O)C[C@H](OC(=O)[C@H](O)[C@@H](NC(=O)c4ccccc4)c4ccccc4)C(C)=C1C3(C)C)[C@]1(OC(C)=O)CO[C@@H]1C[C@@H]2O + CN(C)c1ccc(Nc2c3ccc(NC(=O)CCN4CCCC4)cc3nc3cc(NC(=O)CCN4CCCC4)ccc23)cc1
Second compound 0.0316 µM
  IC50: < 31.6 nM
Second compound 0.1 µM
  IC50: < 31.6 nM
Second compound 0.316 µM
  IC50: < 31.6 nM
Second compound 1 µM
  IC50: < 31.6 nM
Second compound 3.16 µM
  IC50: < 31.6 nM
Second compound 10 µM
  IC50: < 31.6 nM
[1]
  viability, T/C: 43.1%
[2]
  viability, T/C: 29.6%
[3]
  viability, T/C: 29.1%
[4]
  viability, T/C: 25.7%
[5]
  viability, T/C: 27.4%
[6]
  viability, T/C: 26.6%
[7]
  viability, T/C: 44.7%
[8]
  viability, T/C: 32.1%
[9]
  viability, T/C: 26.8%
[10]
  viability, T/C: 28.4%
[11]
  viability, T/C: 26.4%
[12]
  viability, T/C: 25.6%
[13]
  viability, T/C: 25.1%
[14]
  viability, T/C: 22.9%
[15]
  viability, T/C: 20.6%
[16]
  viability, T/C: 14.4%
[17]
  viability, T/C: 19.6%
[18]
  viability, T/C: 15.7%
[19]
  viability, T/C: 3.67%
[20]
  viability, T/C: 2.91%
[21]
  viability, T/C: 3.17%
[22]
  viability, T/C: 2.09%
[23]
  viability, T/C: 2.08%
[24]
  viability, T/C: 2.43%
[25]
  viability, T/C: 0.23%
[26]
  viability, T/C: 0.45%
[27]
  viability, T/C: 0.18%
[28]
  viability, T/C: 0.19%
[29]
  viability, T/C: 0.24%
[30]
  viability, T/C: 0.32%
[31]
  viability, T/C: 0.1%
[32]
  viability, T/C: 0.18%
[33]
  viability, T/C: 0.1%
[34]
  viability, T/C: 0.11%
[35]
  viability, T/C: 0.27%
[36]
  viability, T/C: 0.19%

## COc1cccc2c1C(=O)c1c(O)c3c(c(O)c1C2=O)CC(O)(C(=O)CO)CC3OC1CC(N)C(O)C(C)O1 (stereo not drawn) + CN(C)c1ccc(Nc2c3ccc(NC(=O)CCN4CCCC4)cc3nc3cc(NC(=O)CCN4CCCC4)ccc23)cc1
Second compound 0.0316 µM
  IC50: 261 nM
Second compound 0.1 µM
  IC50: 263 nM
Second compound 0.316 µM
  IC50: 229 nM
Second compound 1 µM
  IC50: < 31.6 nM
Second compound 3.16 µM
  IC50: < 31.6 nM
Second compound 10 µM
  IC50: < 31.6 nM
[1]
  viability, T/C: 93.9%
[2]
  viability, T/C: 66.6%
[3]
  viability, T/C: 51.4%
[4]
  viability, T/C: 19.9%
[5]
  viability, T/C: 0.2%
[6]
  viability, T/C: 0.24%
[7]
  viability, T/C: 109%
[8]
  viability, T/C: 68.2%
[9]
  viability, T/C: 54.4%
[10]
  viability, T/C: 20.2%
[11]
  viability, T/C: 0.28%
[12]
  viability, T/C: 0.36%
[13]
  viability, T/C: 70.2%
[14]
  viability, T/C: 55.2%
[15]
  viability, T/C: 47.6%
[16]
  viability, T/C: 10.7%
[17]
  viability, T/C: 0.27%
[18]
  viability, T/C: 0.33%
[19]
  viability, T/C: 11.5%
[20]
  viability, T/C: 11.2%
[21]
  viability, T/C: 7.77%
[22]
  viability, T/C: 2.02%
[23]
  viability, T/C: 0.44%
[24]
  viability, T/C: 0.64%
[25]
  viability, T/C: 1.52%
[26]
  viability, T/C: 2.29%
[27]
  viability, T/C: 1.63%
[28]
  viability, T/C: 0.4%
[29]
  viability, T/C: 0.14%
[30]
  viability, T/C: 0.51%
[31]
  viability, T/C: 0.38%
[32]
  viability, T/C: 0.25%
[33]
  viability, T/C: 0.32%
[34]
  viability, T/C: 0.18%
[35]
  viability, T/C: 0.29%
[36]
  viability, T/C: 0.26%

## O=c1[nH]cc(F)c(=O)[nH]1 + CN(C)c1ccc(Nc2c3ccc(NC(=O)CCN4CCCC4)cc3nc3cc(NC(=O)CCN4CCCC4)ccc23)cc1
Second compound 0.0316 µM
  IC50: > 10000 nM
Second compound 0.1 µM
  IC50: > 10000 nM
Second compound 0.316 µM
  IC50: 9940 nM
Second compound 1 µM
  IC50: < 31.6 nM
Second compound 3.16 µM
  IC50: < 31.6 nM
Second compound 10 µM
  IC50: < 31.6 nM
[1]
  viability, T/C: 84%
[2]
  viability, T/C: 79.3%
[3]
  viability, T/C: 75.2%
[4]
  viability, T/C: 69.5%
[5]
  viability, T/C: 62.9%
[6]
  viability, T/C: 63.9%
[7]
  viability, T/C: 79.7%
[8]
  viability, T/C: 72.9%
[9]
  viability, T/C: 73.4%
[10]
  viability, T/C: 69.1%
[11]
  viability, T/C: 65.7%
[12]
  viability, T/C: 61.6%
[13]
  viability, T/C: 70.5%
[14]
  viability, T/C: 69.4%
[15]
  viability, T/C: 69.5%
[16]
  viability, T/C: 55.4%
[17]
  viability, T/C: 58%
[18]
  viability, T/C: 49.9%
[19]
  viability, T/C: 14.9%
[20]
  viability, T/C: 11.1%
[21]
  viability, T/C: 17%
[22]
  viability, T/C: 12.6%
[23]
  viability, T/C: 13.4%
[24]
  viability, T/C: 15.8%
[25]
  viability, T/C: 2.15%
[26]
  viability, T/C: 1.36%
[27]
  viability, T/C: 2.04%
[28]
  viability, T/C: 2.2%
[29]
  viability, T/C: 2.62%
[30]
  viability, T/C: 2.05%
[31]
  viability, T/C: 0.33%
[32]
  viability, T/C: 0.41%
[33]
  viability, T/C: 0.8%
[34]
  viability, T/C: 0.38%
[35]
  viability, T/C: 0.5%
[36]
  viability, T/C: 0.29%
